Assay: Human HepG2 cell viability assay in 384 well format
Assay type: toxicity, cell-based
Design: dose 125 nL, time 70.5 hour; concentration not given beside the values
Conditions: HepG2 cells, read-out: Inhibition

| Compound | cytotoxicity at 70.5 h [%] |
| --- | --- |
| CCN1CCC2(CC1)CN(CCO)c1ccccc12 | 21.2 |
| O=C(Cc1cccs1)NCC1COCc2c(-c3ccoc3)nnn2C1 (stereo not drawn) | -9.17 |
| CC1c2ncc(COCC3CCCC3)n2CCN1S(=O)(=O)N(C)C (stereo not drawn) | 0.773 |
| O=c1ccc2c(n1Cc1cccnc1)CCC(NCc1cccnc1)C2 (stereo not drawn) | -0.912 |
| CS(=O)(=O)N1C[C@H](C(=O)Nc2cnccn2)C[C@H]2OCC[C@H]21 | 24.9 |
| CCn1cc2c(n1)C(COCC1CC1)CN(C(=O)c1cnoc1C)C2 (stereo not drawn) | -12.8 |
| COCc1cnc2n1CCN(S(=O)(=O)N(C)C)C2C (stereo not drawn) | -15.1 |
| CCOCC1COCCC12CCN(C(=O)CS(C)(=O)=O)CC2 (stereo not drawn) | -4.64 |
| Cn1c(C(=O)NC2CC2)nc2c1CCN(c1ncccn1)C2 | -4.38 |
| COCC(=O)N1CCC2(CCC2NS(=O)(=O)c2ccccc2)CC1 (stereo not drawn) | 28.8 |
| CC(C)CNC(=O)[C@H]1C[C@@H]2CN(C(=O)NCC3CCCCC3)C[C@H]1O2 | -2.13 |
| COC[C@@H]1CN(C)C(=O)[C@@H]2CCN(Cc3ccco3)CC[C@H]12 | -4.9 |
| CC(C)n1ccc(-c2cc(C(=O)NC3CC3)c3ccccn23)n1 | 21.3 |
| CC(C)N(C)[C@@H]1CCN(Cc2ccco2)[C@H]1Cc1ccccc1 | 38.2 |
| O=C(NCCN1CCCC1)c1nc2c(o1)CN(c1ncccn1)C2 | -1.07 |
| CCc1cnc(N2CCC3(CCN(CC)C3=O)CC2)nc1 | -4.14 |
| CCCNC(=O)c1cc(-c2ccn(C(C)C)n2)n2ccccc12 | -7.13 |
| CCCNC(=O)c1nc2c(o1)CN(c1ncccn1)C2 | -2.16 |
| CN(C)C(=O)[C@H]1CC[C@@H]2[C@@H](CCN2C(=O)N(C)C)O1 | 1.41 |
| CC(=O)NCC(=O)N1Cc2cc(-c3cc[nH]n3)ccc2C1c1cnco1 (stereo not drawn) | -2.28 |
| CCN(C)C(=O)c1ccnn1-c1ccc2ccccn12 | 1.76 |
| O=C(NC1CC1)[C@H]1CC[C@@H]2[C@@H](CCN2Cc2ccsc2)O1 | -10.2 |

| Compound | cytotoxicity at 70.5 h [%] |
| --- | --- |
| O=C(c1ccnnc1)N1CCO[C@H]2[C@@H](OCc3cccnc3)CC[C@@H]21 | -6.56 |
| CC(C)CNc1nc2c(cc1C(=O)NCC1CC1)CCNCC2 | 24.9 |
| O=C(c1cnccn1)N1CCN2C[C@H](OCC3CC3)C[C@H]2C1 | 4.98 |
| CCN(C)c1ncnc2c1CCN(C(=O)[C@H]1CCCO1)CC2 | -9.23 |
| CN(C)C(=O)N1C[C@@H]2COC[C@]2(c2nnc(C3CC3)o2)C1 | -10.1 |
| Cc1ccoc1C(=O)N1CC[C@@H]2O[C@@H](C)C[C@H]2C1 | 0.684 |
| Cc1ncoc1C(=O)N1C[C@@H]2COC[C@]2(c2nnc(C3CC3)o2)C1 | -9.55 |
| c1cnc(NCc2noc3c2CN(C2CCOC2)CC3)nc1 (stereo not drawn) | -6.78 |
| O=C(c1ccoc1)N1CCc2c(COCc3ccncc3)cncc2C1 | 8.95 |
| CC(C)(C)C(=O)N1CCC2(CC1)CC(Oc1ccccc1)CO2 (stereo not drawn) | 11.5 |
| Cc1ncnc2c1CCN(C(=O)c1ccsc1)CC2 | 7.97 |
| Cc1ccc(C(=O)N2CCc3ncnc(C)c3CC2)o1 | 9.18 |
| Cc1ccc(N2CCCc3sc(C(=O)NCc4ccncc4)nc32)nn1 | -1.89 |
| CN1CCCc2sc(C(=O)NCc3cccnc3)nc21 | -10.4 |
| O=C(NCc1cccnc1)c1nc2c(s1)CCCN2c1ncccn1 | 5.15 |
| O=C(NCC1CC1)C1=NOC2(CCN(Cc3ccc(Cl)c(F)c3)C2)C1 (stereo not drawn) | -7.64 |
| CCC(=O)N1CCC2(CC1)CC(Oc1ccccc1)CO2 (stereo not drawn) | -4.49 |
| Cc1ncnc2c1CCN(C(=O)c1ccoc1)CC2 | -6.33 |
| COCCNC(=O)c1nc2c(s1)CCCN2c1ccc(C)nn1 | 0.81 |
| O=C(c1cccs1)N1CCC2(CC1)CC(Oc1ccccc1)CO2 (stereo not drawn) | -10.8 |
| Cc1nnc(N2C[C@H](OCCCn3cccn3)[C@H]3OCCC[C@H]32)s1 | -2.53 |
| Cc1ccc(N2CCCc3sc(C(=O)NCCO)nc32)nn1 | -1.7 |

| Compound | cytotoxicity at 70.5 h [%] |
| --- | --- |
| COCC(=O)N1CCC(c2nc3ccc(N4CCOCC4)cn3n2)CC1 | -2.79 |
| CC(C)N(C)Cc1n[nH]c2c1CCN(C(=O)c1cc[nH]n1)C2 | 21.5 |
| O=C(C1CCCCC1)N1CCC2(CC1)CNCc1ccccc12 | 0.691 |
| CC(C)C(=O)N1CCC2(CC1)NC(=O)c1ccccc12 | -2.39 |
| O=C(NCC1CCC2(CCNCC2)CO1)c1ccno1 (stereo not drawn) | 3.09 |
| Cn1cnc2c(N3CCOCC3)nc(C3CCNCC3)cc21 | -1.78 |
| CC(C)n1cnc2c(N3CCCC3)nc(C3CCNCC3)cc21 | 5.44 |
| CC[C@@H]1N(CC2CCOCC2)CCC[C@]12CCC(=O)N2 | -6.16 |
| Fc1ccccc1CO[C@@H]1C[C@H]2CN(c3ncccn3)CCN2C1 | 4.66 |
| CN(C)Cc1cnc2n1CCN(C(=O)NC1CCCC1)CC2 | -1.58 |
| CN1CCO[C@@H]2CN(C(=O)COc3cccc(Cl)c3)C[C@@H]2C1 | 4.28 |
| CN1C[C@@H](COCC2CC2)[C@H]2CCN(Cc3ccco3)CC[C@H]2C1=O | -5.7 |
| CN(C)C(=O)N1CC[C@H]2[C@H]1CCN2c1nncs1 | -6.13 |
| CCOCC(=O)N1CCc2c(CN(C)C)nn(C(C)C)c2C1 | -4.01 |
| COC[C@H]1CN(CC2CC2)C(=O)[C@@H]2CCN(Cc3ccoc3)CC[C@H]12 | -4.84 |
| CN(C)Cc1cnc2n1CCN(C(=O)Cc1ccc(F)cc1)CC2 | -1.54 |
| O=S1(=O)NCC2(CCN(c3ncccn3)CC2)COc2ccccc21 | 47.5 |
| O=C(CC1CCCC1)N1CC[C@H]2[C@H]1CCN2c1nncs1 | 19.9 |
| O=S(=O)(C1CC1)N1CCc2onc(COc3ccccn3)c2C1 | 34.6 |
| Cc1cccc(N2CCC3(CCCC(=O)N3)CC2)n1 | -0.82 |
| Cc1ccc(N2CCCC3(CCCC(=O)N3)C2)nn1 (stereo not drawn) | -5.66 |
| Cc1cnc(N2CCN(C)c3ncccc3C2)nc1 | 4.51 |

| Compound | cytotoxicity at 70.5 h [%] |
| --- | --- |
| COCC1CN(S(=O)(=O)c2ccc(C)cc2)Cc2c1cnn2C (stereo not drawn) | 7.58 |
| c1cc(C2CC2)n2cnc(C3CN(Cc4nccs4)CCO3)c2c1 (stereo not drawn) | -1.41 |
| COCC1CN(S(=O)(=O)Cc2ccccc2)Cc2c1cnn2C (stereo not drawn) | -1.14 |
| CCS(=O)(=O)N1CCc2onc(COc3ccccn3)c2C1 | -3.32 |
| c1nc2c(c(NC3CCC3)n1)CCNCC2 | -2.44 |
| COCC1CN(C(=O)COc2ccccc2)Cc2ncn(C)c21 (stereo not drawn) | -0.249 |
| c1ccc(OCc2noc3c2CN(c2ncccn2)CC3)nc1 | -6.14 |
| Cc1ccc2c(n1)N(C)CCN(C(=O)NC(C)C)C2 | -6.1 |
| O=C(N[C@@H]1CN(Cc2cccs2)[C@@H]2CCCO[C@@H]21)c1cscn1 | -9.16 |
| CS(=O)(=O)N1CC[C@H]2O[C@H](C(=O)NCCc3ccccn3)CC[C@H]21 | -9.62 |
| CCN(C)c1ncnc2c1CCN(C(=O)N(C)C)CC2 | 0.982 |
| CN1CCC2(C=C(C(=O)N3CCCC3)c3ccccc32)CC1 | 1.49 |
| O=C(Nc1ccccc1)C1CN(CC2CCOCC2)CC12CCOCC2 (stereo not drawn) | 9.8 |
| O=C(NCc1ccco1)[C@@H]1CC[C@@H]2[C@@H](CCN2CC2CC2)O1 | -6.24 |
| O=C(c1cnccn1)N1CCN2C[C@H](OCc3ccccc3)C[C@H]2C1 | -1.37 |
| CN1CCC2(COCc3cnc(-c4ccccc4)nc32)C1 (stereo not drawn) | -6.86 |
| CCN(C)c1ncnc2c1CCN(C(=O)COC)CC2 | -10.8 |
| O=C(NCc1cccs1)c1nc2c(o1)CN(CC1CC1)C2 | -9.19 |
| CN(C)C(=O)NC[C@@H]1OC[C@H]2CN(Cc3cccc(F)c3)CC[C@H]21 | -6.1 |
| CCOCC1CN(S(=O)(=O)N(C)C)Cc2cnn(CC)c21 (stereo not drawn) | -8.84 |
| Cc1nc(CN2Cc3nccn3CC(COCC3CC3)C2)cs1 (stereo not drawn) | -0.0625 |
| CS(=O)(=O)N1Cc2cnn(CC3CC3)c2C(COCC2CC2)C1 (stereo not drawn) | -6.21 |

| Compound | cytotoxicity at 70.5 h [%] |
| --- | --- |
| COCCN1CCC2(COCc3cnc(N(C)C)nc32)C1 (stereo not drawn) | -2.9 |
| Cc1ccc(CN2CCOC3(COCCN(S(C)(=O)=O)C3)C2)o1 (stereo not drawn) | -5.62 |
| CCOCCCNC(=O)c1nc2c(s1)CCCN2c1ccc(C)nn1 | -7.8 |
| CN(C)C(=O)N1Cc2nnn(C)c2C(COCc2cccnc2)C1 (stereo not drawn) | -2.6 |
| c1ccc(CO[C@@H]2C[C@H]3CN(c4ncccn4)CCN3C2)nc1 | -7.06 |
| COCCN1CCO[C@@H]2CN(Cc3ccccc3OC)C[C@@H]2C1 | -0.773 |
| COCCN1CCC2(CC1)CC(NCc1cncn1C)c1ccccc12 (stereo not drawn) | 1.8 |
| O=C(NC1CC2(CCN(CCO)CC2)c2ccccc21)c1ccncc1 (stereo not drawn) | -5.59 |
| COCCN1CCO[C@@H]2CN(Cc3ccc(C)s3)C[C@@H]2C1 | -2.59 |
| O=C(N[C@H]1CN(Cc2cccs2)[C@@H]2CCCO[C@H]12)c1cccnc1 | -18.4 |
| CCc1cnc(N2CC[C@H]3[C@H]2CC(=O)N3c2cccnc2)nc1 | -10 |
| O=C(NCCc1ccncc1)[C@H]1CC[C@@H]2[C@@H](CCN2CC2CC2)O1 | -10.8 |
| O=C(NCCc1ccncc1)[C@@H]1CC[C@@H]2[C@@H](CCN2Cc2ccco2)O1 | -9.71 |
| Cc1nnc(N2C[C@@H](Oc3ccccn3)[C@H]3OCCC[C@H]32)s1 | -4.15 |
| O=C(c1ccc[nH]1)N1CCc2c(COCc3ccncc3)cncc2C1 | -3.15 |
| CCN(CC)CC1CN(Cc2nccs2)Cc2nccn2C1 (stereo not drawn) | -9.42 |
| Cc1nnc(N2C[C@H](OCc3cccnc3)[C@H]3OCCC[C@H]32)s1 | 10 |
| Cc1nnc(N2C[C@H](OCc3ccncc3)[C@H]3OCCC[C@H]32)s1 | -4.47 |
| Cn1cc(CNC2CC3(CCN(CC4CC4)CC3)c3ccccc32)cn1 (stereo not drawn) | -2.11 |
| c1coc(CN2CCOC3(COCCN(Cc4ccncc4)C3)C2)c1 (stereo not drawn) | -3.4 |

Source: ChEMBL document CHEMBL3507680, “University of Dundee, Gates Library screen for HepG2 cell viability”
